Where only a bound is given, the exact number is not on record here.

Experimental findings from patent publication US20240190860A1, “8-CYCLO-SUBSTITUTED QUINAZOLINE DERIVATIVES AS LPA RECEPTOR 2 INHIBITORS” (CHIESI FARMACEUTICI S.p.A., priority 2021, published 2024) are described below.

In this assay the target is T1, human recombinant LPA2 expressed in CHO cells (Homo sapiens, UniProt Q9HBW0).
T1 construct: expressed in transfected cells; host or cells: CHO cells (CHO-hLPA2 cell line)
Kind of assay: FLIPR calcium mobilization assay, LPA2 antagonism in CHO-hLPA2 cells. In kind it is cell-based. The conditions noted are these: CHO-hLPA2 cells, inhibition of LPA EC80 Ca2+ response, 30 min pre-incubation; read-out: LPA2 IC50. A digest of the protocol:
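Antagonist potency from four-parameter logistic fit (pIC50) of % inhibition of peak Ca2+ signal evoked by an EC80 LPA challenge. Before challenge, hLPA2-CHO cells were dye-loaded (5 μM Cal-520 AM, 2.5 mM probenecid, pH 7.4 HEPES buffer, 30 min, 37° C) and exposed 30 min to compound at 11 concentrations, 0.5% DMSO final.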
(Calcium assays in cells follow changes in intracellular calcium, usually with a dye or a luminescent sensor.)

T1 sequence (Q9HBW0 whole entry): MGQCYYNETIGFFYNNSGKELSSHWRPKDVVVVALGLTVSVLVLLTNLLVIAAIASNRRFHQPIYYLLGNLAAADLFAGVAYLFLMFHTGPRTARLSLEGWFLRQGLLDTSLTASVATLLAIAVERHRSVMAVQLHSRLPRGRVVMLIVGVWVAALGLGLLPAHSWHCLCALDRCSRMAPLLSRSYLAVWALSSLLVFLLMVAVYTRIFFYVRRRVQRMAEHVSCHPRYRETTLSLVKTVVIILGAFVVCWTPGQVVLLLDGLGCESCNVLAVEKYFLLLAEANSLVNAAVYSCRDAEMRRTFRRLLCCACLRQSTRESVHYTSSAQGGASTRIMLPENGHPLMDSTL

In the case of `CC(=O)N1CCc2cc(S(=O)(=O)N3CCN(C[C@H](C)Nc4ncnc5c(-c6ccc(C)nc6)cccc45)CC3)ccc21` [Example 69, 1-[5-({4-[(2S)-2-{[8-(6-methylpyridin-3-yl)quinazolin-4-yl]amino}propyl]piperazin-1-yl}sulfonyl)-2,3-dihydro-1H-indol-1-yl}ethan-1-one], the IC50 is below 0.01 µM.

On to `COC(=O)Nc1nc(C)c(S(=O)(=O)N2CCN(C[C@H](C)Nc3ncnc4c(-c5cccc(C)n5)cccc34)CC2)s1` [Example 71, methyl N-[4-methyl-5-({4-[(2S)-2-{[8-(6-methylpyridin-2-yl)quinazolin-4-yl]amino}propyl]piperazin-1-yl}sulfonyl)-1,3-thiazol-2-yl]carbamate], for which the IC50 is below 0.01 µM.

On to `COC(=O)Nc1nc(C)c(S(=O)(=O)N2CCN(C[C@H](C)Nc3ncnc4c(-c5cncc(NC=O)c5)cccc34)CC2)s1` [Example 72, methyl N-[5-({4-[(2S)-2-{[8-(5-formamidopyridin-3-yl)quinazolin-4-yl]amino}propyl]piperazin-1-yl}sulfonyl)-4-methyl-1,3-thiazol-2-yl]carbamate], for which the IC50 is below 0.01 µM.

Take `COC(=O)Nc1nc(C)c(S(=O)(=O)N2CCN(C[C@H](C)Nc3ncnc4c(-c5ccnc(C#N)n5)cccc34)CC2)s1` [Example 73, methyl N-[5-({4-[(2S)-2-{[8-(2-cyanopyrimidin-4-yl)quinazolin-4-yl]amino}propyl]piperazin-1-yl}sulfonyl)-4-methyl-1,3-thiazol-2-yl]carbamate]: the IC50 is 0.01 to 0.1 µM.

In the case of `COC(=O)Nc1nc(C)c(S(=O)(=O)N2CCN(C[C@H](C)Nc3ncnc4c(-c5ccc(F)c(Cl)n5)cccc34)CC2)s1` [Example 74, methyl N-[5-({4-[(2S)-2-{[8-(6-chloro-5-fluoropyridin-2-yl)quinazolin-4-yl]amino}propyl]piperazin-1-yl}sulfonyl)-4-methyl-1,3-thiazol-2-yl]carbamate], the IC50 fell in the range of 0.01 to 0.1 µM.

On to `COC(=O)Nc1ncc(S(=O)(=O)N2CCN(C[C@H](C)Nc3ncnc4c(-c5cccc(CN(C)C)c5)cccc34)CC2)s1` [Example 75, methyl N-[5-({4-[(2S)-2-[(8-{3-[(dimethylamino)methyl]phenyl}quinazolin-4-yl)amino]propyl]piperazin-1-yl}sulfonyl)-1,3-thiazol-2-yl]carbamate], for which the IC50 was below 0.01 µM.

On to `C[C@@H](CN1CCN(S(=O)(=O)c2ccc3c(c2)CC(=O)N3)CC1)Nc1ncnc2c(-c3cccc(CN(C)C)c3)cccc12` [Example 76, 5-({4-[(2S)-2-[(8-{3-[(dimethylamino)methyl]phenyl}quinazolin-4-yl)amino]propyl]piperazin-1-yl}sulfonyl)-2,3-dihydro-1H-indol-2-one], for which the half-maximal inhibitory concentration (IC50) is below 0.01 µM.

On to `C[C@@H](CN1CCN(S(=O)(=O)c2ccc3[nH]c(=O)[nH]c(=O)c3c2)CC1)Nc1ncnc2c(-c3cccc(CN(C)C)c3)cccc12` [Example 77, 6-({4-[(2S)-2-[(8-{3-[(dimethylamino)methyl]phenyl}quinazolin-4-yl)amino]propyl]piperazin-1-yl}sulfonyl)-1,2,3,4-tetrahydroquinazoline-2,4-dione], for which the IC50 is below 0.01 µM.

In the case of `Cc1ccc(-c2cccc3c(N[C@@H](C)CN4CCN(S(=O)(=O)c5ccc6[nH]c(=O)sc6c5)CC4)ncnc23)cn1` [Example 78, 6-({4-[(2S)-2-{[8-(6-methylpyridin-3-yl)quinazolin-4-yl]amino}propyl]piperazin-1-yl}sulfonyl)-2,3-dihydro-1,3-benzothiazol-2-one], the IC50 was 0.01 to 0.1 µM.

With `C[C@@H](CN1CCN(S(=O)(=O)c2ccc3[nH]c(=O)sc3c2)CC1)Nc1ncnc2c(-c3cn(C)nc3C(F)(F)F)cccc12` [Example 79, 6-({4-[(2S)-2-({8-[1-methyl-3-(trifluoromethyl)-1H-pyrazol-4-yl]quinazolin-4-yl}amino)propyl]piperazin-1-yl}sulfonyl)-2,3-dihydro-1,3-benzothiazol-2-one], the IC50 was below 0.01 µM.

Regarding `COC(=O)Nc1nc(C)c(S(=O)(=O)N2CCN(C[C@H](C)Nc3ncnc4c(-c5ccc6c(c5)CN(C)C6)cccc34)CC2)s1` [Example 80, methyl N-[4-methyl-5-({4-[(2S)-2-{[8-(2-methyl-2,3-dihydro-1H-isoindol-5-yl)quinazolin-4-yl]amino}propyl]piperazin-1-yl}sulfonyl)-1,3-thiazol-2-yl]carbamate], the IC50 is below 0.01 µM.

Turning to `COCC(=O)Nc1ncc(S(=O)(=O)N2CCN(C[C@H](C)Nc3ncnc4c(-c5cccc(CN(C)C)c5)cccc34)CC2)s1` [Example 81, N-[5-({4-[(2S)-2-[(8-{3-[(dimethylamino)methyl]phenyl}quinazolin-4-yl)amino]propyl]piperazin-1-yl}sulfonyl)-1,3-thiazol-2-yl]-2-methoxyacetamide], the IC50 is below 0.01 µM.

As for `COC(=O)Nc1nc(C)c(S(=O)(=O)N2CCN(C[C@H](C)Nc3ncnc4c(-c5c[nH]nc5C(F)(F)F)cccc34)CC2)s1` [Example 82, methyl N-[4-methyl-5-({4-[(2S)-2-({8-[3-(trifluoromethyl)-1H-pyrazol-4-yl]quinazolin-4-yl}amino)propyl]piperazin-1-yl}sulfonyl)-1,3-thiazol-2-yl]carbamate], the IC50 is below 0.01 µM.

As for `Cc1nc2ccc(S(=O)(=O)N3CCN(C[C@H](C)Nc4ncnc5c(-c6cccnc6)cccc45)CC3)cc2s1` [Example 83, N-[(2S)-1-{4-[(2-methyl-1,3-benzothiazol-6-yl)sulfonyl]piperazin-1-yl}propan-2-yl]-8-(pyridin-3-yl)quinazolin-4-amine], the IC50 was below 0.01 µM.

For the molecule `Cc1nc2ccc(S(=O)(=O)N3CCN(C[C@H](C)Nc4ncnc5c(-c6cccc(CN(C)C)c6)cccc45)CC3)cc2s1` [Example 84, 8-{3-[(dimethylamino)methyl]phenyl}-N-[(2S)-1-{4-[(2-methyl-1,3-benzothiazol-6-yl)sulfonyl]piperazin-1-yl}propan-2-yl]quinazolin-4-amine], the IC50 was below 0.01 µM.

Consider `Cc1ccc(-c2cccc3c(N[C@@H](C)CN4CCN(S(=O)(=O)c5ccc(-c6cc(C)no6)s5)CC4)ncnc23)cn1` [Example 85, N-[(2S)-1-(4-{[5-(3-methyl-1,2-oxazol-5-yl)thiophen-2-yl]sulfonyl}piperazin-1-yl)propan-2-yl]-8-(6-methylpyridin-3-yl)quinazolin-4-amine], for which the IC50 was below 0.01 µM.

On to `Cc1nc(NC(=O)CN(C)C)sc1S(=O)(=O)N1CCN(C[C@H](C)Nc2ncnc3c(-c4cn(C)nc4C(F)(F)F)cccc23)CC1` [Example 86, 2-(dimethylamino)-N-[4-methyl-5-({4-[(2S)-2-({8-[1-methyl-3-(trifluoromethyl)-1H-pyrazol-4-yl]quinazolin-4-yl}amino)propyl]piperazin-1-yl}sulfonyl)-1,3-thiazol-2-yl]acetamide], for which the IC50 was below 0.01 µM.

For `COC(=O)Nc1nc(C)c(S(=O)(=O)N2CCN(C[C@H](C)Nc3ncnc4c(-c5cncc(C=O)c5)cccc34)CC2)s1` [Example 87, methyl N-[5-({4-[(2S)-2-{[8-(5-formylpyridin-3-yl)quinazolin-4-yl]amino}propyl]piperazin-1-yl}sulfonyl)-4-methyl-1,3-thiazol-2-yl]carbamate], the IC50 was below 0.01 µM.

In the case of `C[C@@H](CN1CCN(S(=O)(=O)c2ccccc2)CC1)Nc1ncnc2c(-c3cn(C)nc3C(F)(F)F)cccc12` [Example 88, N-[(2S)-1-[4-(benzenesulfonyl)piperazin-1-yl]propan-2-yl]-8-[1-methyl-3-(trifluoromethyl)-1H-pyrazol-4-yl]quinazolin-4-amine], the IC50 was in the range of 0.01 to 0.1 µM.

Turning to `COC(=O)Nc1nc(C)c(S(=O)(=O)N2CCN(C[C@H](C)Nc3ncnc4c(-c5cccc(CN(C)C)c5C)cccc34)CC2)s1` [Example 89, methyl N-[5-({4-[(2S)-2-[(8-{3-[(dimethylamino)methyl]-2-methylphenyl}quinazolin-4-yl)amino]propyl]piperazin-1-yl}sulfonyl)-4-methyl-1,3-thiazol-2-yl]carbamate], the IC50 is below 0.01 µM.

For `COC(=O)Nc1nc(C)c(S(=O)(=O)N2CCN(C[C@H](C)Nc3ncnc4c(-c5cccc(CN(C)C)c5F)cccc34)CC2)s1` [Example 90, methyl N-[5-({4-[(2S)-2-[(8-{3-[(dimethylamino)methyl]-2-fluorophenyl}quinazolin-4-yl)amino]propyl]piperazin-1-yl}sulfonyl)-4-methyl-1,3-thiazol-2-yl]carbamate], the IC50 is below 0.01 µM.

On to `COC(=O)Nc1nc(C)c(S(=O)(=O)N2CCN(C[C@H](C)Nc3ncnc4c(-c5ccc(C)c(CN(C)C)c5)cccc34)CC2)s1` [Example 91, methyl N-[5-({4-[(2S)-2-[(8-{3-[(dimethylamino)methyl]-4-methylphenyl}quinazolin-4-yl)amino]propyl]piperazin-1-yl}sulfonyl)-4-methyl-1,3-thiazol-2-yl]carbamate], for which the half-inhibitory concentration (IC50) is below 0.01 µM.

With `COC(=O)Nc1nc(C)c(S(=O)(=O)N2CCN(C[C@H](C)Nc3ncnc4c(-c5ccc(C)nc5C)cccc34)CC2)s1` [Example 92, methyl N-[5-({4-[(2S)-2-{[8-(2,6-dimethylpyridin-3-yl)quinazolin-4-yl]amino}propyl]piperazin-1-yl}sulfonyl)-4-methyl-1,3-thiazol-2-yl]carbamate], the IC50 is below 0.01 µM.

`Cc1cc(-c2cc(S(=O)(=O)N3CCN(C[C@H](C)Nc4ncnc5c(-c6cccc(CN(C)C)c6)cccc45)CC3)cs2)on1` [Example 93, 8-{3-[(dimethylamino)methyl]phenyl}-N-[(2S)-1-(4-{[5-(3-methyl-1,2-oxazol-5-yl)thiophen-3-yl]sulfonyl}piperazin-1-yl)propan-2-yl]quinazolin-4-amine]: the IC50 was below 0.01 µM.

The term IC50 denotes the concentration at which inhibition is half-maximal.
